IC50 data for one molecule are collected here from article PMC9785169, “New Insights Regarding Hemin Inhibition of the Purified Rat Brain 2-Oxoglutarate Carrier and Relationships with Mitochondrial Dysfunction” (Journal of Clinical Medicine, 2022).

The target in this assay is T1, 2-oxoglutarate/malate carrier (OGC) (Rattus norvegicus, UniProt P97700).
T1 construct: gene Slc25a11; OGC purified from rat brain mitochondria, reconstituted into proteoliposomes
T1 sequence (P97700 2-314): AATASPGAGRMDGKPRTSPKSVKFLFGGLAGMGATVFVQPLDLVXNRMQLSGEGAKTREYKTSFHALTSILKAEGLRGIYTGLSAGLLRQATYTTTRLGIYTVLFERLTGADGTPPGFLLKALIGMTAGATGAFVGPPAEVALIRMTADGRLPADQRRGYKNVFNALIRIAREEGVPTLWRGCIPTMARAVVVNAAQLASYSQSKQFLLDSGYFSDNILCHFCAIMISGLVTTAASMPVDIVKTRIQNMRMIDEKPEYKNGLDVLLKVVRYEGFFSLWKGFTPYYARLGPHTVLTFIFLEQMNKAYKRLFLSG
Briefly: […]malate uptake inhibition in proteoliposomes reconstituted with purified OGC, internal hemin. In kind it is biochemical.

Regarding `C=CC1=C(C)C2=Cc3c(C=C)c(C)c4[n]3[Fe]([Cl])[n]3c(c(C)c(CCC(=O)O)c3=CC3=NC(=C4)C(C)=C3CCC(=O)O)=CC1=N2` [hemin], the IC50 was 0.082 ± 0.007 µM.
